Measured values as given in ChEMBL document CHEMBL5370604, “Identification of Micrococcin P2-Derivatives as Antibiotic Candidates against Two Gram-Positive Pathogens” (J Med Chem, 2023).
≈ marks a conversion by molar mass, not a printed value. Calls of active or inactive are those of the source. No cut-off for these calls is given here.

Columns and labels:
[1] = system: Clostridioides difficile; test: Antibacterial activity against Clostridioides difficile ribotype 027 infected in colitis induced C57BL/6J mouse assessed as survival rate at 30 mg/kg, po qd pretreated with clindamycin followed by […] infection and compound addition measured on day 5; format: functional; details: ribotype 027, 120 h, time 5 day
[2] = system: Clostridioides difficile; test: Antibacterial activity against Clostridioides difficile ribotype 027 infected in colitis induced C57BL/6J mouse assessed as increase in survival rate without recurrence at 30 mg/kg, po qd pretreated with clindamycin followed by […] infection and compound addition measured on day 10 to day 11; format: functional, organism-based; details: time 10-11 day
[3] = system: Staphylococcus aureus; test: Antibacterial activity against Staphylococcus aureus ATCC 4330 assessed as inhibition of bacterial growth measured after 16 to 24 hrs by CLSI based broth dilution method; format: functional; details: time 16-24 hrs
[4] = system: Clostridioides difficile; test: Antibacterial activity against Clostridioides difficile ATCC 43255 assessed as inhibition of bacterial growth measured after 24 hrs by CLSI based broth dilution method; format: functional
[5] = Aqueous kinetic solubility of the compound at pH 7.4 incubated for 2 hrs by UPLC-MS analysis; format: physicochemical; details: read-out: Kinetic_solubility

SMILES	MIC [3]	MIC [4]	survival at 30 mg/kg [1]	Activity [2]	solubility kinetic at 2 h [5]
CCc1c(Cl)c(O)c(Cl)c(O)c1C(=O)O[C@H]1[C@H](O)[C@H](OC)[C@H](OC/C2=C\C=C\C[C@H](O)/C(C)=C/[C@H](CC)[C@@H](O[C@@H]3OC(C)(C)[C@@H](OC(=O)C(C)C)[C@H](O)[C@@H]3O)/C(C)=C/C(C)=C/C[C@@H]([C@@H](C)O)OC2=O)O[C@@H]1C [FIDAXOMICIN]	–	–	40%	inactive	–
C/C=C(\NC(=O)c1csc(-c2csc(-c3ccc4c(n3)-c3csc(n3)[C@H]([C@@H](C)O)NC(=O)c3csc(n3)[C@H](C(C)C)NC(=O)c3csc(n3)/C(=C/C)NC(=O)[C@H]([C@@H](C)O)NC(=O)c3csc-4n3)n2)n1)C(=O)NCC(C)=O	0.5 µg/mL (≈ 0.438 µM)	1 µg/mL (≈ 0.875 µM)	–	–	0.07 µg/mL (≈ 0.0613 µM)
C/C=C1\NC(=O)[C@H]([C@@H](C)O)NC(=O)c2csc(n2)-c2ccc(-c3nc(-c4nc(C(=O)NC5(C(=O)NCCCN6CCN(C(C)C)CC6)CC5)cs4)cs3)nc2-c2csc(n2)[C@H]([C@@H](C)O)NC(=O)c2csc(n2)[C@H](C(C)C)NC(=O)c2csc1n2.Cl	–	–	–	–	2.8 µg/mL
C/C=C(\NC(=O)c1csc(-c2csc(-c3ccc4c(n3)-c3csc(n3)[C@H]([C@@H](C)O)NC(=O)c3csc(n3)[C@H](C(C)C)NC(=O)c3csc(n3)/C(=C/C)NC(=O)[C@H]([C@@H](C)O)NC(=O)c3csc-4n3)n2)n1)C(=O)NCCN1CCN(C(C)C)CC1.Cl	–	–	–	–	3 µg/mL

Further lines, with some results ahead:

MIC [3]	MIC [4]	SMILES	survival at 30 mg/kg [1]	Activity [2]	solubility kinetic at 2 h [5]
1 µg/mL (≈ 0.824 µM)	1 µg/mL (≈ 0.824 µM)	C/C=C1\NC(=O)[C@H]([C@@H](C)O)NC(=O)c2csc(n2)-c2ccc(-c3nc(-c4nc(C(=O)NC5(C(=O)NCCCN6CCOCC6)CC5)cs4)cs3)nc2-c2csc(n2)[C@H]([C@@H](C)O)NC(=O)c2csc(n2)[C@H](C(C)C)NC(=O)c2csc1n2	–	–	–
1 µg/mL (≈ 0.834 µM)	1 µg/mL (≈ 0.834 µM)	C/C=C(\NC(=O)c1csc(-c2csc(-c3ccc4c(n3)-c3csc(n3)[C@H]([C@@H](C)O)NC(=O)c3csc(n3)[C@H](C(C)C)NC(=O)c3csc(n3)/C(=C/C)NC(=O)[C@H]([C@@H](C)O)NC(=O)c3csc-4n3)n2)n1)C(=O)NCCN1CCOCC1	–	–	–
1 µg/mL (≈ 0.807 µM)	0.25 µg/mL (≈ 0.202 µM)	C/C=C(\NC(=O)c1csc(-c2csc(-c3ccc4c(n3)-c3csc(n3)[C@H]([C@@H](C)O)NC(=O)c3csc(n3)[C@H](C(C)C)NC(=O)c3csc(n3)/C(=C/C)NC(=O)[C@H]([C@@H](C)O)NC(=O)c3csc-4n3)n2)n1)C(=O)NCCn1cc([N+](=O)[O-])nc1C	–	–	–
1 µg/mL (≈ 0.807 µM)	0.5 µg/mL (≈ 0.403 µM)	C/C=C1\NC(=O)[C@H]([C@@H](C)O)NC(=O)c2csc(n2)-c2ccc(-c3nc(-c4nc(C(=O)NC5(C(=O)NCCn6cc([N+](=O)[O-])nc6C)CC5)cs4)cs3)nc2-c2csc(n2)[C@H]([C@@H](C)O)NC(=O)c2csc(n2)[C@H](C(C)C)NC(=O)c2csc1n2	–	–	–
1 µg/mL (≈ 0.816 µM)	0.5 µg/mL (≈ 0.408 µM)	C/C=C(\NC(=O)c1csc(-c2csc(-c3ccc4c(n3)-c3csc(n3)[C@H]([C@@H](C)O)NC(=O)c3csc(n3)[C@H](C(C)C)NC(=O)c3csc(n3)/C(=C/C)NC(=O)[C@H]([C@@H](C)O)NC(=O)c3csc-4n3)n2)n1)C(=O)NCCn1ccnc1[N+](=O)[O-]	–	–	–
